Measurements taken from PubChem BioAssay AID330 (DTP/NCI, 2004).
Values joined by “and” are separate entries in the source; they are usually repeats but may differ in a detail not shown here. Equal values may be shown once. Inconclusive results and toxic doses are left out.

Tested on: P388 leukemia ip, CD2F1 mice, survival T/C
Test: NCI In Vivo Anticancer Drug Screen. Data for tumor model P388 Leukemia (intraperitoneal) in CD2F1 (CDF1) mice
Details: endpoint: median survival time, higher = longer survival
Procedure, shortened: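 Mice carrying the transplanted tumor received test compound or vehicle. Survival was recorded in each group, and the value is the treated-group measurement divided by that of the vehicle-treated control group.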

[1] = dose: 12.5 mg/kg/injection, schedule: Q01DX005 (ip), vehicle: Klucel (hydroxypropylcellulose) (HPC)
[2] = dose: 25.0 mg/kg/injection, schedule: Q01DX005 (ip), vehicle: Klucel (hydroxypropylcellulose) (HPC)
[3] = dose: 50.0 mg/kg/injection, schedule: Q01DX005 (ip), vehicle: Klucel (hydroxypropylcellulose) (HPC)
[4] = dose: 100.0 mg/kg/injection, schedule: Q01DX009 (ip), vehicle: saline with Tween-80
[5] = dose: 200.0 mg/kg/injection, schedule: Q01DX009 (ip), vehicle: saline with Tween-80

Cc1ccc(N=Nc2c(-c3cccs3)nn(C(N)=S)c2C(F)(F)F)cc1
T/C [1]: 103 % of control
T/C [2]: 98 % of control
T/C [3]: 98 % of control

C1CCCCCc2c(-c3noc4c3CCCCCCCCCC4)noc2CCCC1
T/C (dose: 60.0 mg/kg/injection, schedule: Q01DX005 (ip), vehicle: Klucel + Tween-80): 105 % of control
T/C (dose: 120.0 mg/kg/injection, schedule: Q01DX005 (ip), vehicle: Klucel + Tween-80): 97 % of control
T/C (dose: 240.0 mg/kg/injection, schedule: Q01DX005 (ip), vehicle: Klucel + Tween-80): 100 % of control

Cc1ccc(S(=O)(=O)OI(C#CC(C)(C)C)c2ccccc2)cc1
T/C [1]: 102 % of control
T/C [2]: 102 % of control
T/C [3]: 101 % of control and 117 % of control

CC12CC3(C)CC(C)(C1)CC(C(NC(C)(C)C)C(=O)O)(C2)C3 (centres undefined)
T/C (dose: 25.0 mg/kg/injection, schedule: Q01DX009 (ip), vehicle: saline with Tween-80): 100 % of control
T/C (dose: 50.0 mg/kg/injection, schedule: Q01DX009 (ip), vehicle: saline with Tween-80): 100 % of control and 105 % of control and 122 % of control
T/C [4]: 99 % of control and 110 % of control and 96 % of control
T/C [5]: 99 % of control

CSC(=O)/N=C(\N)NC(=O)c1ccccc1
T/C [3]: 95 % of control
T/C (dose: 100.0 mg/kg/injection, schedule: Q01DX005 (ip), vehicle: Klucel (hydroxypropylcellulose) (HPC)): 94 % of control
T/C (dose: 200.0 mg/kg/injection, schedule: Q01DX005 (ip), vehicle: Klucel (hydroxypropylcellulose) (HPC)): 92 % of control

O=C1C=C(N2C3C4CCC(C4)C32)C(=O)C=C1c1ccccc1 (centres undefined)
T/C (dose: 100.0 mg/kg/injection, schedule: Q01DX001 (ip), vehicle: other): 102 % of control
T/C (dose: 200.0 mg/kg/injection, schedule: Q01DX001 (ip), vehicle: other): 109 % of control
T/C (dose: 400.0 mg/kg/injection, schedule: Q01DX001 (ip), vehicle: other): 111 % of control

C=C(c1ccccc1)C1(O)CCCCC1N(C)C (centres undefined)
T/C (dose: 25.0 mg/kg/injection, schedule: Q04DX002 (ip), vehicle: saline with Tween-80): 102 % of control
T/C (dose: 50.0 mg/kg/injection, schedule: Q04DX002 (ip), vehicle: saline with Tween-80): 100 % of control
T/C (dose: 100.0 mg/kg/injection, schedule: Q04DX002 (ip), vehicle: saline with Tween-80): 94 % of control

COC(=O)C12C3C4C1C1C2C3C41C(=O)OC (centres undefined)
T/C (dose: 60.0 mg/kg/injection, schedule: Q01DX005 (ip), vehicle: saline with Tween-80): 102 % of control
T/C (dose: 120.0 mg/kg/injection, schedule: Q01DX005 (ip), vehicle: saline with Tween-80): 102 % of control
T/C (dose: 240.0 mg/kg/injection, schedule: Q01DX005 (ip), vehicle: saline with Tween-80): 102 % of control

COC(=O)c1nc(N)nc(C(=O)OC)c1C(=O)c1cccnc1
T/C (dose: 60.0 mg/kg/injection, schedule: Q01DX005 (ip), vehicle: Klucel (hydroxypropylcellulose) (HPC)): 95 % of control
T/C (dose: 120.0 mg/kg/injection, schedule: Q01DX005 (ip), vehicle: Klucel (hydroxypropylcellulose) (HPC)): 93 % of control

COc1ccccc1N1C(=O)CSC1=S
T/C [4]: 86 % of control
T/C (dose: 100.0 mg/kg/injection, schedule: Q04DX003 (ip), vehicle: saline with Tween-80): 90 % of control
T/C [5]: 90 % of control
T/C (dose: 200.0 mg/kg/injection, schedule: Q04DX003 (ip), vehicle: saline with Tween-80): 90 % of control
T/C (dose: 400.0 mg/kg/injection, schedule: Q04DX003 (ip), vehicle: saline with Tween-80): 100 % of control

Cc1nn(C(=O)c2ccncc2)c(C)c1N=Nc1ccc(S(=O)(=O)Nc2nccs2)cc1
T/C (dose: 100.0 mg/kg/injection, schedule: Q04DX003 (ip), vehicle: saline): 96 % of control
T/C (dose: 200.0 mg/kg/injection, schedule: Q04DX003 (ip), vehicle: saline): 97 % of control
T/C (dose: 400.0 mg/kg/injection, schedule: Q04DX003 (ip), vehicle: saline): 110 % of control

O=C(O)C(Cc1ccccc1)N1C(=O)C=CC1=O (centres undefined)
T/C (dose: 10.0 mg/kg/injection, schedule: Q01DX009 (ip), vehicle: saline with Tween-80): 112 % of control
T/C (dose: 20.0 mg/kg/injection, schedule: Q01DX009 (ip), vehicle: saline with Tween-80): 107 % of control
T/C (dose: 40.0 mg/kg/injection, schedule: Q01DX009 (ip), vehicle: saline with Tween-80): 104 % of control and 95 % of control
T/C (dose: 50.0 mg/kg/injection, schedule: Q01DX009 (ip), vehicle: Klucel (hydroxypropylcellulose) (HPC)): 89 % of control
T/C (dose: 100.0 mg/kg/injection, schedule: Q01DX009 (ip), vehicle: Klucel (hydroxypropylcellulose) (HPC)): 90 % of control

[S-]c1n[n+](-c2ccccc2)no1
T/C (dose: 6.25 mg/kg/injection, schedule: Q01DX009 (ip), vehicle: distilled water + Tween-80): 102 % of control
T/C (dose: 12.5 mg/kg/injection, schedule: Q01DX009 (ip), vehicle: distilled water + Tween-80): 88 % of control

COc1ccc(OC)c(/C=C/c2ccc3ccccc3n2)c1
T/C [4]: 90 % of control
T/C [5]: 90 % of control
T/C (dose: 400.0 mg/kg/injection, schedule: Q01DX009 (ip), vehicle: saline with Tween-80): 104 % of control

CS(=O)(=O)OCC(O)C(O)C(O)C(O)COS(C)(=O)=O (centres undefined)
T/C (dose: 50.0 mg/kg/injection, schedule: Q01DX010 (ip), vehicle: saline): 100 % of control
T/C (dose: 100.0 mg/kg/injection, schedule: Q01DX010 (ip), vehicle: saline): 100 % of control
T/C (dose: 200.0 mg/kg/injection, schedule: Q01DX010 (ip), vehicle: saline): 172 % of control
T/C (dose: 400.0 mg/kg/injection, schedule: Q01DX010 (ip), vehicle: saline): 209 % of control
